From PubChem BioAssay AID493075 (Broad Institute, 2011)
The source made the active and inactive calls.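 Rule for the calls: active = luminescence drop in every repeat test, with half-maximal concentration at most ten times the top dose; inconclusive = repeat tests disagree; inactive = inactive in every repeat test.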

System: not listed separately
Assay: LuxS/LuxPQ-dependent luminescence inhibition, V. harveyi – dry powder, set 3, dose response (AID 493075)
Conditions: Vibrio harveyi JMH597 AI-2 quorum sensing luminescence, 9 h; at 16 µM (top of the series)
For `C[C@H](CO)N1C[C@H](C)[C@H](CN(C)Cc2ccc(C(=O)O)cc2)Oc2ncc(-c3ccc(C(=O)N(C)C)cc3)cc2C1=O`, the activity change, negative = inhibition was 24.5% (inactive).
With `C[C@H]1CN([C@@H](C)CO)C(=O)c2cc(NC(=O)Nc3ccc4c(c3)OCO4)ccc2O[C@@H]1CN(C)C(=O)Nc1ccc(C(F)(F)F)cc1` the activity change, negative = inhibition was -5.41% (inactive).
In the case of `C[C@@H]1CCCCO[C@@H](CN(C)Cc2ccncc2)[C@H](C)CN([C@H](C)CO)C(=O)c2cc(NC(=O)C3CCCCC3)ccc2O1`, the activity change, negative = inhibition is reported as 0.341% (inactive).
In the case of `C[C@H](CO)N1C[C@H](C)[C@@H](CN(C)C(=O)Nc2ccc(C(F)(F)F)cc2)Oc2ccc(NC(=O)Nc3ccc4c(c3)OCO4)cc2C1=O`, the activity change, negative = inhibition is reported as -5.58% (inactive).
In the case of `CNC[C@@H]1Oc2ccc(NC(=O)C3CCCCC3)cc2CC(=O)N([C@@H](C)CO)C[C@H]1C`, the activity change, negative = inhibition is reported as -5.97% (inactive).
With `O=S(=O)(Nc1ccccn1)c1ccccc1` the activity change, negative = inhibition was -0.42% (inactive).
With `C[C@@H]1CCCCO[C@@H](CN(C)Cc2ccc(C(=O)O)cc2)[C@H](C)CN([C@H](C)CO)C(=O)c2cc(NC(=O)CCCN(C)C)ccc2O1` the activity change, negative = inhibition was -4.89% (inactive).
With `Cc1ccc(S(=O)(=O)Nc2ccc3c(c2)C(=O)N([C@H](C)CO)C[C@H](C)[C@@H](CN(C)Cc2ccc(C(F)(F)F)cc2)O3)cc1` the activity change, negative = inhibition was -11% (inactive).
With `C[C@@H]1CN([C@@H](C)CO)C(=O)Cc2cc(NC(=O)CCN3CCOCC3)ccc2O[C@H]1CN(C)C(=O)Nc1ccc(F)cc1` the activity change, negative = inhibition was -10.1% (inactive).
With `C[C@@H]1CN([C@H](C)CO)C(=O)c2cccc(NC(=O)Nc3ccc(C(F)(F)F)cc3)c2O[C@@H]1CN(C)C(=O)Nc1ccc(C(F)(F)F)cc1` the activity change, negative = inhibition was -16.5% (inactive).
In the case of `C[C@@H]1CN([C@@H](C)CO)C(=O)Cc2cc(NC(=O)CCN3CCOCC3)ccc2O[C@H]1CN(C)C(=O)Nc1ccc(C(F)(F)F)cc1`, the activity change, negative = inhibition is reported as -2.52% (inactive).
In the case of `C[C@@H]1CN([C@@H](C)CO)C(=O)Cc2cc(NC(=O)CCCN(C)C)ccc2O[C@H]1CN(C)CC1CCCCC1`, the activity change, negative = inhibition is reported as 5.19% (inactive).
In the case of `C[C@@H]1CCCCO[C@@H](CN(C)C(=O)Nc2cccc3ccccc23)[C@H](C)CN([C@H](C)CO)C(=O)c2cc(NC(=O)CCC(F)(F)F)ccc2O1`, the activity change, negative = inhibition is reported as -4.12% (inactive).
For `Cc1ccc(S(=O)(=O)Nc2ccc3c(c2)CC(=O)N([C@@H](C)CO)C[C@@H](C)[C@H](CN(C)C(=O)Nc2ccc(F)cc2)O3)cc1`, the activity change, negative = inhibition was -1.6% (inactive).
With `C[C@@H]1CCCCO[C@@H](CN(C)C(=O)Nc2ccc(C(F)(F)F)cc2)[C@H](C)CN([C@@H](C)CO)C(=O)c2cc(NC(=O)CCC(F)(F)F)ccc2O1` the activity change, negative = inhibition was -7.66% (inactive).
For `C=Cn1c(C(=O)O)ccc1-c1cccs1`, the activity change, negative = inhibition was 1.45% (inactive).

System: Vibrio harveyi JMH597 AI-2 quorum sensing luminescence, 9 h
Assay: as above
Conditions: not given
`C[C@H](CO)N1C[C@H](C)[C@@H](CN(C)Cc2ccc3c(c2)OCO3)Oc2c(NC(=O)NC3CCCCC3)cccc2C1=O` gave an AC50 of 7.05 µM.
`O=C1C=C/C(=C/Br)O1` showed an AC50 of 3.78 µM.
Work on `C[C@@H]1CN([C@H](C)CO)C(=O)c2ccccc2-c2ccccc2CO[C@@H]1CN(C)Cc1ccc(Oc2ccccc2)cc1` yielded an AC50 of 12.7 µM.
`C=Cn1c(C(=O)O)ccc1-c1ccc(OC)cc1` showed an AC50 of 8.59 µM.
With `CCc1ccc(S(=O)(=O)Nc2ccc(Br)cn2)cc1` the AC50 was 3.67 µM.
Work on `O=S(=O)(Nc1cccnc1)c1ccc(Oc2ccccc2)cc1` yielded an AC50 of 0.627 µM.
In the case of `C=Cn1c(C(=O)O)ccc1-c1ccc(Cl)cc1`, the AC50 is reported as 4.97 µM.
In the case of `CCc1ccc(-c2ccc(C(=O)O)n2C)cc1`, the AC50 is reported as 4.46 µM.
